Here are results for 1 compound from ChEMBL document CHEMBL3638960, “4,5-dihydro-oxazol-2yl derivatives” (2014).

In this assay the target is Trace amine-associated receptor 1 (Mus musculus, UniProt Q923Y8). As to the kind of experiment: Binding assay: Binding assay was performed at 4 C. in a final volume of 1 ml, and with an incubation time of 30 min. The radioligand [3H]-rac-2-(1,2,3,4-tetrahydro-1-naphthyl)-2-imidazoline was used at a concentration equal to the calculated Kd value of 60 nM to give a bound at around 0.1% of the total added radioligand concentration, and a specific binding which represented approximately 70-80% of the total binding. Non-specific binding was defined as the amount of [3H]-rac-2-(1,2,3,4-tetrahydro-1-naphthyl)-2-imidazoline bound in the presence of the appropriate unlabelled ligand (10 μM). Competing ligands were tested in a wide range of concentrations ([…]).
Trace amine-associated receptor 1, sequence (Q923Y8 whole entry): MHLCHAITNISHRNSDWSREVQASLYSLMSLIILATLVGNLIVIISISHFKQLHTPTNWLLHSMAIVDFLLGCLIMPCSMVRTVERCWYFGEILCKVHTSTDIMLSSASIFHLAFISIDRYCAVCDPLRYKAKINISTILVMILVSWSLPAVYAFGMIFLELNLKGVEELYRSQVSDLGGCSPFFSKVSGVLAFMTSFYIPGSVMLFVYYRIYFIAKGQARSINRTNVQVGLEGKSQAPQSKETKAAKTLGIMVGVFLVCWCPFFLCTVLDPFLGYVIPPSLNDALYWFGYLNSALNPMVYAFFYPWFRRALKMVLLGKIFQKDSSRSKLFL

The structures appear in SMILES notation.

One may read the Ki as a measure of affinity in units of concentration, obtained from inhibition or displacement. Turning to `NC1=N[C@@H](CCC2(c3ccccc3)CC2)CO1`, the Ki was 0.5 nM.
